# Test results taken from patent US20180353457A1, “ABIETANE DITERPENOID 7-ACETOXYROYLEANONES FOR USE IN CANCER TREATMENT” (University of South Carolina, priority 2017, published 2018).
# Columns and labels:
# [1] = tested on: MG-63 (osteosarcoma) cells; assay: MTS cytotoxicity assay, MG-63; format: cell-based; conditions: MG-63 cells, 48 and 72 hours of exposure
# From the text: (§1) Human cell lines used included MG-63 (osteosarcoma), SK-OV-3 (ovarian adenocarcinoma), MDA-MB-231 (breast adenocarcinoma derived from a metastatic site), HCT 116 (colorectal carcinoma), HCT 116/200 (an FdUrd resistant subclone of HCT 116 cells), and A2780ADR (a doxorubicin resistant subclone of the ovarian carcinoma A2780). All cells were stored in liquid nitrogen until use. MG-63, SK-OV-3, MDA-MB-231, and HCT 116 cell lines were all obtained from ATCC. A2780ADR cells were obtained from Sigma-Aldrich. HCT 116/200 cells were obtained from Dr. Franklin G. Berger from the Center for Colon Cancer Research. MG-63 cells were maintained in MEM medium (Corning) supplemented with 10% Fetal Bovine Essence (VWR) and 1% penicillin/streptomycin solution (Corning). SK-OV-3 cells were maintained in McCoy's 5A Medium (Sigma) supplemented with Fetal Bovine Essence and 1% penicillin/streptomycin. […]
# (§2) Cells were first grown to approximately 80% confluency within […] tissue culture flasks (VWR). […] Cells were counted using a hemocytometer and their viability was confirmed using trypan blue (Gibco). […]
# (§3) In combination studies, 7-acetoxyroyleanone and FdUrd were first mixed into the same media and then added to the cells. […] The cells were incubated for 2 hours, and the absorbance of each well at 490 nm was measured using a Spectramax 190 microplate reader.
# [2] = tested on: SK-OV-3 (ovarian adenocarcinoma) cells; assay: MTS cytotoxicity assay, SK-OV-3; format: cell-based; conditions: SK-OV-3 cells
# From the text: as §1, §2, §3
# [3] = tested on: MDA-MB-231 (breast adenocarcinoma) cells; assay: MTS cytotoxicity assay, MDA-MB-231; format: cell-based; conditions: MDA-MB-231 cells
# From the text: as §1, §2, §3
# [4] = tested on: HCT 116 (colorectal carcinoma) cells; assay: MTS cytotoxicity assay, HCT 116; format: cell-based; conditions: HCT 116 cells
# From the text: as §1, §2, §3
# [5] = tested on: A2780ADR (doxorubicin resistant subclone of ovarian carcinoma A2780) cells; assay: MTS cytotoxicity assay, A2780ADR; format: cell-based; conditions: 48 and 72 hours of exposure
# From the text: as §1, §2, §3
# [6] = tested on: A498 (renal cancer) cells; assay: NCI-60 five dose screen, A498; conditions: read-out: LC50; A498, Renal
# [7] = tested on: DU-145 (prostate cancer) cells; assay: NCI-60 five dose screen, DU-145; conditions: read-out: LC50; DU-145, Prostate
# [8] = 48 and 72 hours of exposure, MTS
structure (smiles),measurement,setting,value
CC(=O)O[C@@H]1C[C@H]2C(C)(C)CCC[C@]2(C)C2=C1C(=O)C(C(C)C)=C(O)C2=O [7-acetoxyroyleanone],cytotoxicity (percent viability),[1],significant cytotoxic properties
same,cell death at the lowest concentration tested,[2]; 1 μg/mL,cell death was indicated
same,cytotoxicity (percent viability),[2]; [8],significant cytotoxic properties
same,cell death at the lowest concentration tested,[3]; 1 μg/mL,cell death was indicated
same,cytotoxicity (percent viability),[3]; [8],significant cytotoxic properties
same,cell death at the lowest concentration tested,[4]; 1 μg/mL,cell death was indicated
same,cytotoxicity (percent viability),[4]; [8],significant cytotoxic properties
same,cytotoxicity (percent viability),[5],significant cytotoxic properties
same,CC50,[6],5.19 µM
same,CC50,[7],5.67 µM
